Data from US7888389B2 (The Regents of the University of Michigan, priority 2002, dated 2011).
Where “and” joins values, the source holds several entries; their conditions need not be identical. Identical values can stand only once. Like-named read-outs stand apart in the source and are kept apart here.

Legend:
[1] = tested on: MML cells (prostate cancer) and breast cancer cells
[2] = cited from earlier work
[3] = cited from earlier work; remark: listed apart in the source
[4] = IV 99Mo labeled TM, sheep; cited from earlier work
[5] = Stability in moist heated air; format: physicochemical
breast cancer cells = test: Human breast cancer xenograft growth in athymic nude mice; format: in vivo; settings: TM 1 mg/day; TP-TM 1 mg/day and 1.5 mg/day; p<0.01 vs control
Description: FIG. 5. […] 10^6 breast cancer cells were injected in the mammary fat pad of 4 groups of athymic, nude mice (5 mice per group). Control mice received no treatment.
In this study, 10^6 breast cancer cells were injected in the mammary fat pad of 4 groups of athymic, nude mice (5 mice per group). Control mice received no treatment.

[6] = late stages of liver disease; cited from earlier work
[7] = Storage stability of TM (bulk and capsules); format: physicochemical; settings: room temperature
From the text: TM and salts of TM are available; one of the preferred salts of TM is the ammonium salt. […] TM purchased from Aldrich Chemical Company (available in one kilogram bulk lots) is certified pure for human use. The bulk drug should be stored in the absence of oxygen, or the oxygen will gradually exchange with the sulfur, rendering the drug ineffective over time. The bulk drug is therefore stored under argon.
TM was purchased in bulk lots suitable for human administration (Aldrich Chemical Company, Milwaukee, Wis.). […] At the time a prescription was written, the appropriate dose of TM was placed in gelatin capsules. […] Thus, TM was dispensed to each patient in eight-week installments throughout the trial.

[8] = cited from earlier work; remark: listed apart in the source
[9] = Stability in open Petri dishes at room temperature (activity over time); settings: for percentage activity: open Petri dishes at room temperature
From the text: FIG. 4. […] Stability of each compound was studied under conditions that exacerbate instability, i.e. the drugs were in open Petri dishes at room temperature. The percentage activity is plotted as a function of time in days.
This study was done under conditions that exacerbate instability, ie. the drugs were in open Petri dishes at room temperature.

mammary tumors = test: Mammary tumor development in HER2-neu transgenic mice
[10] = tested on: SUM149 breast cancer cells; test: SUM149 orthotopic tumors in nude mice; format: in vivo
From the text: In this study, the ability of tetrathiomolybdate (TM) to abrogate or retard the growth of tumors in the mammary pads of nude mice after orthotropic injection of human breast cancer cells was studied. The highly angiogenic inflammatory breast cancer cell line called SUM149 was selected for this study. Given its high propensity to form palpable tumors within 2 weeks of injection into the mammary of 80-100% of the nude mice injected, this cell line posed a stringent test of the ability of TM to impair tumor progression.
Three groups of 5 nude mice each were set up in separate cages. Groups 2 and 3 received TM in the drinking water to average an intake of 1.2 mg/day/mouse, starting at day-7. Groups 1, 2, and 3 were injected on day 0 with 10^6 SUM149 breast cancer cells in the second thoracic mammary fat pad. On day 34, as no palpable tumors were noticeable in any of the mice in the treatment groups, TM was skipped on groups 2 and 3, and then TM was restarted on group 2at a dose of 0.6 mg/day/mouse, while TM was resumed at full dose (1.2 mg/mouse/day) in group 3.
The developing tumors were measured approximately twice weekly, and the average of the product of the bi-dimensional perpendicular diameters for each group versus time was determined. The tumors in the control group grew relatively rapidly and all animals developed tumors. […] This dose decreases copper to approximately 10-20% of baseline levels. It is this degree of copper deficiency, well tolerated in both mice and humans, which appears to be required to inhibit tumor angiogenesis.

[11] = tested on: mouse sarcoma, MCA205, and mouse melanoma, B16B16; test: Mouse tumor model, injected tumor cells; format: in vivo, C57B1/6J mice
Description: Under these guidelines, anti-angiogenesis therapeutic studies were conducted using TM in a mouse tumor model. This study involved subcutaneous or intramuscular injection of tumor cells into young adult C57B1/6J mice. Two tumors were used, a mouse sarcoma, MCA205, and a mouse melanoma, B16B16. The MCA 205 tumor cell suspension was injected subcutaneously into C57B16 mice. After the tumors were palpable, copper deficiency was induced by use of TM in half the animals, using Cp levels to monitor copper status. The other half were sham treated. Tumor growth was compared between the untreated control group and mice treated with sufficient TM to reduce Cp to about 10% of normal controls.

[12] = ½ dose of TM (0.6 mg/day/mouse)

In the case of tetrathiomolybdate [TM], the “effective decoppering serum concentration relative to threshold lethal level for cells (fold lower)” value [1] is given as 100-500 fold, the anemia ([2]; 18 mg of TM) is given as “the anemia was severe” and the effects in rats ([2]; approximately 6 mg of TM per kilogram of diet) is given as “substantial effects on copper”. For the same substance, the anemia ([2]; approximately 12 mg of TM) was “Mild anemia was present”, the skeletal lesions ([2]; approximately 12 mg of TM) was “one of six animals” and the “prevention of toxic effects by copper” value ([2]; up to 36 mg of TM per kilogram of diet) was “could be prevented by oral supplementation with copper”. For the same substance, the “tolerance of TM injections” value ([3]; IV 50 or 100 mg 2x weekly, copper loaded sheep) was “tolerated up to 22 injections of TM without clinical problems”, the “adverse side effects in commercial sheep flocks” value ([3]; over 400 animals treated) was “no adverse side effects” and the excreted in feces [4] was 5%. For the same substance, the excreted in urine [4] was “over 90%”, the “t1/2 of slow plasma disappearance” value [4] was “about 40 h” and the “speed of reducing Cp level to <20%” value (metastatic solid tumors; 20 mg tid with meals plus single 60 mg between meals vs 20 mg tid with and 20 mg tid between meals) was “more rapidly”. For the same substance, the “mean time to 50% reduction of Cp” value (metastatic solid tumors; 90, 105, 120 mg/day) was 30 days, the “median time to Cp 50% of baseline” value (metastatic solid tumors; 90, 105, 120 mg/day) was 28 days and the “level III dose outcome” value (metastatic solid tumors; TM 120 mg/day) was “effective in reaching the target Cp, without added toxicity”. The “time for further reduction to Cp levels of 5-10 mg/dl” value (metastatic solid tumors; after reaching 50% of baseline) was 20 to 30 days, the “lung lesions in two patients with stable disease” value (metastatic solid tumors; at target Cp for 120 and 49 days) was “complete disappearance of some lung lesions and decrease in size of other lung lesions” and the “additional toxicities with long-term maintenance” value (metastatic solid tumors; human, in vivo) was “No additional toxicities of any type were observed”. The burping (metastatic solid tumors; human, in vivo) was “Several patients experienced transient, occasional sulphur-smelling burping”, the “mild (greater than 80% of baseline Hct) reversible anemia” value (metastatic solid tumors; human, in vivo) was 4 patients and the “only drug-related toxicity observed” value (metastatic solid tumors; human, in vivo) was “mild anemia in one patient”. For the same substance, the “time for hematocrit to recover after stopping the drug” value (metastatic solid tumors; human, in vivo) was 5 to 7 days, the “time to rapid rise in Cp after TM discontinued” value (metastatic solid tumors; human, in vivo) was at most 48 h and the “toxicities at Cp levels at or above 20% of baseline” value (metastatic solid tumors; human, in vivo) was “no cardiac, pulmonary, GI, renal, hepatic, hematologic, infectious, skin, mucosal, or neurologic toxicities observed”. For the same substance, the “treated patients maintained at target Cp for more than 90 days” value (metastatic solid tumors; human, in vivo) was 39%, the “patients with serum Cp lowered to 50% of baseline” value (metastatic solid tumors; initial TM 90 to 120 mg per day) was 17 out of 18 patients and the “duration of stable disease on TM treatment” value (metastatic solid tumors; one patient, previously untreated metastatic breast cancer) was “over 6 months”. The “decrease in blood flow to tumor mass (3D-ultrasound)” value (metastatic solid tumors; rib metastasis of renal cell carcinoma, approximately 8 weeks after target copper deficiency) was 4.4 fold, the “increase of loss of activity in moist heated air over ambient conditions” value [5] was “about 10 fold” and the “tumor growth curves versus control animals” value (breast cancer cells) was “effectively inhibiting tumor growth”. For the same substance, the “efficacy in LEC rats” value [6] was “very effective”, the stability in capsules [7] was “stable in capsules for several months at room temperature” and the “potency retained in gelatin capsules” value ([8]; eight weeks) was “at least 90%”. For the same substance, the “stability of bulk drug” value ([8]; under argon) was “stable for several years under argon”, the half life [9] was “about 40 days” and the percentage activity ([9]; Day 0) was 100. The percentage activity ([9]; Day 45) was 44, the percentage activity ([9]; Day 148) was 9 and the percentage activity ([9]; Day 211) was 0. For the same substance, the “TM-treated mice developing clinically overt tumors” value (mammary tumors; 0.5-1.0 mg TM by gavage daily from 100 days of age, median follow-up 260 days) was “none”, the “ceruloplasmin (Cp) in treatment group” value (mammary tumors; 0.5-1.0 mg TM daily) was “below 40 % of baseline” and the “outcome at higher doses” value (mammary tumors; 1.25-1.5 mg TM) was “died after 1-3 weeks of therapy”. The “shrinkage of well established tumors (>1.5 cm)” value (mammary tumors; 3 control animals treated, 2/3 cases) was 25% and 50%, the “vascularization of micro-tumors in mammary glands” value (mammary tumors; TM-treated mice, microscopic analyses) was “none of the micro-tumors of the treated mice were vascularized” and the “maximum tolerated dose (MTD), prolonged treatment” value (mammary tumors; adult mice, average weight 32 grams) was 1.0 mg/day. For the same substance, the anemia (mammary tumors; copper (Cp) decreased to below 40% of baseline) was “no anemia observed”, the clinically overt toxicity (mammary tumors; copper levels decreased to 10% of baseline) was “no clinically overt toxicity” and the “time to clinically overt mammary tumors after release from treatment” value (mammary tumors; cross-over group previously disease-free) was at most 18 days. For the same substance, the “palpable tumors in treatment groups” value ([10]; TM 1.2 mg/day/mouse in drinking water from day -7) was “no tumors were palpable until TM was skipped on day 34”, the copper level ([10]; full dose TM 1.2 mg/day/mouse) was 10-20 % of baseline levels and the “tumor growth after day 34” value ([10]; full dose TM 1.2 mg/day/mouse) was “only very small tumors have grown”. For the same substance, the “decrease of copper levels” value [10, 12] was 50%, the “tumor growth after day 34” value [10, 12] was “the tumors grew more rapidly” and the “tumor growth rate, final tumor size and weight” value ([11]; TM sufficient to reduce Cp to about 10% of normal, 16 days observation) was “significant effect on reducing the growth rate of tumors, and on reducing final tumor size and weight”. The “tumor weight normalized to total weight of the animal versus control” value ([11]; mouse, in vivo) was “weighed significantly less than the tumors in control mice”.
